Patent US9278068B2, “Vesicle compositions” (Sensulin LLC, priority 2011, dated 2016)
Like-named read-outs stand apart in the source and are kept apart here.

What was measured:
[1] = Binding assay: competition with ConA-FITC on glucose-terminated magnetic beads; details: relative to ConA; 2.4 μM ConA-FITC, boronic acid 2.5 μM to 20 μM, PBS pH 7.2
Protocol: The binding affinity of boronic acid derivatives to glucose was determined by competition assay using ConcanavalinA (ConA) as the competitive standard, and varying concentrations of the boronic acid derivatives. Carboxy-terminated magnetic beads were activated by suspending the beads in 100 mM 2-(N-morpholino)ethanesulfonic acid (MES) buffer (pH 4.5). Glucosamine (100 mg/mL) was conjugated to the activated magnetic beads using carbodiimide coupling with 1-ethyl-3-(3-dimethylaminopropyl)carbodiimide (EDC) as a crosslinker. The conjugation reaction was carried out in a 96 well plate. The reaction was run for 24 h. The beads were separated by placing the microplate on a magnetic separator and were washed thoroughly with PBS at pH 7.2 to remove unbound glucose, excess EDC, and N-hydroxysulfosuccinimide (Sulfo-NHS).
The glucose terminated beads were co-incubated for 1 h with 2.4 μM ConA (a known binder of carbohydrates) fluorescently tagged with fluorescein isothiocyanate (ConA-FITC), and titrated with concentrations ranging from 2.5 μM to 20 μM of each boronic acid derivative tested. The following controls were used: (A) carboxy-terminated magnetic beads (not conjugated to glucose) were treated with ConA-FITC to determine non-specific binding; and (B) glucose conjugated beads were treated with a high concentration of non-fluorescent ConA to determine maximal binding.
The wells were washed three times with PBS at pH 7.2 to remove unbound boronic acid derivatives and FITC-ConA. The beads were re-suspended in PBS and stirred for 15 min at rt before measuring FITC fluorescence (excitation: 495 nm, top emission: 520 nm; 6 flashes per well; average of n=3 wells in a Flexstation 11^384 microplate reader to quantify the amount of glucose bound to the boronic acids). The fluorescence intensity was measured and used as an indication of the amount of ConA bound to the surface of the beads, or [ConAs]. The ConA-sugar interaction was expected to be inhibited by the boronic acid derivatives, which can bind the sugar molecules and displace the bound ConA-FITC, thereby causing a decrease in fluorescence intensity of the mixture.
The binding constant of the boronic acid derivatives was calculated from the fluorescence intensity. The reduction of fluorescence intensity is related to [ConAs] by Equation 2.
[formula] The relationship between [ConAs] and the amount of boronic acid [BA] is given by Equation 3.
[formula] Simple rearrangement yields Equation 4, from which the ratio of the two equilibrium constants (KConA/KBA) can be derived.
[formula] • The concentration of sugar sites (S1) can be calculated from the intercept of a plot of 1/[ConAs] vs 1/[BA].

HeLa cells [2] = assay: MTT assay for cytotoxicity; details: 2 h
Protocol: (§1) The cytotoxicity of the boronic acid derivatives from Table 1 was studied by MTT assay. 150,000 HeLa cells were plated in 96 well plates on the night before the experiments. On the day of experiments, the cells were treated with the boronic acid derivatives at three different concentrations (40 nM, 80 nM, and 160 nM) for 2 h. At the end of the incubation, MTT assays (In-Vitro toxicology MTT based assay kit, Sigma Aldrich, MO) were performed according to the manufacturer's protocol.

NF-κB [3] = assay: NF-κB assay for inflammation (nuclear translocation of NF-κB, immunocytochemistry, PCC); details: HeLa cells, 2 h, PCC between nuclear and cytoplasmic fraction of NF-κB
Protocol: (§2) 15,000 HeLa cells were plated in 96 well plates the night before the experiments. On the day of the experiments, the cells were treated with the boronic acids (Table 1, below) at three different concentrations (40 nM, 80 nM, and 160 nM) for 2 h. At the end of the incubation, cells were washed with phosphate buffered saline (PBS) and were fixed in 4% paraformaldehyde for 15 min and permeablized with 0.01% Triton X-100 in PBS for 10 min. The cells were washed with PBS three times. Nonspecific sites were blocked with 5% bovine serum albumin (BSA) in PBS and incubated with the Anti-NF-κB for 1 h, followed by incubation with fluorescein isothiocyanate (FITC)-labeled secondary antibody. After washing the cells at the end of the incubation, the cells were treated with 4′,6-diamidino-2-phenylindole (DAPI) for 1 min and kept at 4° C. until further analysis. Images of the cells were acquired with a Beckman-Coulter 100 automated high-throughput microscope system and analyzed using Cytseer software (Vala Sciences, CA). The co-localization of NF-κB was quantified by measuring the PCC between the nuclear and cytoplasmic fraction of the NF-κB molecule. The PCC is a measure of the overlap between the pixel intensities of the nuclear and NF-κB images of the same cell. The PCC values can range from −1 to 1. […] A negative correlation (negative PCC value) indicates an absence of nuclear translocation.

NF-κB [4] = details: human
Protocol: as §2

HeLa cells [5] = details: human
Protocol: as §1

Sugar Binding Affinity Log(KaBA/KaConA) [1] | Inflammation (PCC) 40 nM (NF-κB [3]) | Inflammation (PCC) 80 nM (NF-κB [3]) | Inflammation (PCC) 160 nM (NF-κB [3]) | Structure (SMILES) | MTT (% Cell Survival) 40 nM (HeLa cells [2]) [%] | MTT (% Cell Survival) 80 nM (HeLa cells [2]) [%] | MTT (% Cell Survival) 160 nM (HeLa cells [2]) [%] | Inflammation (PCC) 40 nM (NF-κB [4]) | Inflammation (PCC) 80 nM (NF-κB [4]) | Inflammation (PCC) 160 nM (NF-κB [4]) | MTT (% Cell Survival) 40 nM (HeLa cells [5]) [%] | MTT (% Cell Survival) 80 nM (HeLa cells [5]) [%] | MTT (% Cell Survival) 160 nM (HeLa cells [5]) [%]
– | – | – | – | OB(O)c1ccc(Cl)cc1 [4-chlorophenylboronic acid] | – | – | – | −0.1494 | 0.01664 | 0 | 51.23 | 81.65 | 56.97
−0.009 | −0.1402 | −0.0786 | 0.1922 | CCCc1ccc(B(O)O)cc1 [4-propylphenylboronic acid] | 202.674 | 202.92 | 164.2 | – | – | – | – | – | –
−1.24 | −0.0359 | 0.00225 | 0.193 | O=Cc1cc(B(O)O)cs1 [5-formylthiophene-3-boronic acid] | 86.87 | 87.03 | 73.80 | – | – | – | – | – | –
−2.3 | −0.0211 | −0.0701 | 0.1187 | OB(O)c1ccc(-c2ccccc2)s1 [5-phenyl-2-thienylboronic acid] | 100.56 | 81.24 | 86.23 | – | – | – | – | – | –

Structure (SMILES) | Sugar Binding Affinity Log(KaBA/KaConA) [1] | Inflammation (PCC) 40 nM (NF-κB [3]) | Inflammation (PCC) 80 nM (NF-κB [3]) | Inflammation (PCC) 160 nM (NF-κB [3]) | MTT (% Cell Survival) 40 nM (HeLa cells [2]) [%] | MTT (% Cell Survival) 80 nM (HeLa cells [2]) [%] | MTT (% Cell Survival) 160 nM (HeLa cells [2]) [%] | Inflammation (PCC) 40 nM (NF-κB [4]) | Inflammation (PCC) 80 nM (NF-κB [4]) | Inflammation (PCC) 160 nM (NF-κB [4]) | MTT (% Cell Survival) 40 nM (HeLa cells [5]) [%] | MTT (% Cell Survival) 80 nM (HeLa cells [5]) [%] | MTT (% Cell Survival) 160 nM (HeLa cells [5]) [%]
O=C(Cl)c1ccc(B2OB(c3ccc(C(=O)Cl)cc3)OB(c3ccc(C(=O)Cl)cc3)O2)cc1 [4-chlorocarbonylphenylboronic anhydride] | −2.08 | −0.0664 | −0.0012 | 0.09826 | 114.54 | 107.21 | 79.46 | – | – | – | – | – | –
OB(O)c1ccc(O)cc1 [4-hydroxyphenylboronic acid] | −1.08 | −0.0665 | −0.1081 | 0.2007 | 203.926 | 198.184 | 172.8 | – | – | – | – | – | –
